According to patent US20060222671A1, “Dermatological compositions and salts for the treatment of dermatological diseases” (Astion Development A/S, priority 2005, published 2006):
Entries after “also recorded” stand apart in the source; their conditions may differ.

What was measured:
skin = conditions: in vivo; cited from earlier work
[1] = test system: oxazolone induced ear inflammation in mice; test: Oxazolone induced mouse ear oedema assay; type: in vivo; conditions: for % inhibition of ear swelling: 24 hours after challenge; for inhibition of the formation of ear oedema: Example 7: 500 μg/ear dissolved in 96% ethanol
Description: This screening method is commonly employed for screening and evaluation of anti-inflammatory drugs, in particular with respect to the inflammation seen in contact dermatitis. Betamethasone-17 valerate was used as the positive control. […] Betamethasone was administered topically in quantities of 20 μg/ear. Betamethasone was applied in the commercial form Celeston valerate® 0.1%. All groups were immunised with 20 μl oxazolone, 1.6% in ethanol 96% (w/v) on the left and the right ear. The ear thickness of all mice on both the left and right side was measured with an electronic measuring gauge. All groups were challenged with 20 μl oxazolone (1.6% in ethanol 96% (w/v)) on the left ear and the right ear. Vehicle (acetone) or test article solutions were administered 20 minutes before and 20 minutes after oxazolone challenge. 24 hours after oxazolone challenge the ear thickness of all mice was measured with an electronic measuring gauge. Mean thickness of the ears and standard deviations were calculated. Ear swelling was calculated as the difference between the ear thickness day 7 and day 8. […] Differences in ear swelling between the vehicle treated group and the other groups were tested for significance employing a non-parametric statistical method of analysis, the Mann-Whitney U test. The required level of significance was p<0.05. […] Both test articles were applied in a dose of 500 μg/ear and dissolved in 96% ethanol. Betamethasone, as the positive control was administered topically in quantities of 20 μg/ear.

[2] = biological target: T1, Protein Tyrosine Kinase, ZA70 (ZAP-70) (Homo sapiens, UniProt P43403); test: Protein Tyrosine Kinase ZA70 (ZAP-70) enzyme assay (MDS Pharma Service No. 155987); type: biochemical
T1 construct: purchased MDS Pharma Services (contract assay) 155987
T1 sequence (P43403 1-619): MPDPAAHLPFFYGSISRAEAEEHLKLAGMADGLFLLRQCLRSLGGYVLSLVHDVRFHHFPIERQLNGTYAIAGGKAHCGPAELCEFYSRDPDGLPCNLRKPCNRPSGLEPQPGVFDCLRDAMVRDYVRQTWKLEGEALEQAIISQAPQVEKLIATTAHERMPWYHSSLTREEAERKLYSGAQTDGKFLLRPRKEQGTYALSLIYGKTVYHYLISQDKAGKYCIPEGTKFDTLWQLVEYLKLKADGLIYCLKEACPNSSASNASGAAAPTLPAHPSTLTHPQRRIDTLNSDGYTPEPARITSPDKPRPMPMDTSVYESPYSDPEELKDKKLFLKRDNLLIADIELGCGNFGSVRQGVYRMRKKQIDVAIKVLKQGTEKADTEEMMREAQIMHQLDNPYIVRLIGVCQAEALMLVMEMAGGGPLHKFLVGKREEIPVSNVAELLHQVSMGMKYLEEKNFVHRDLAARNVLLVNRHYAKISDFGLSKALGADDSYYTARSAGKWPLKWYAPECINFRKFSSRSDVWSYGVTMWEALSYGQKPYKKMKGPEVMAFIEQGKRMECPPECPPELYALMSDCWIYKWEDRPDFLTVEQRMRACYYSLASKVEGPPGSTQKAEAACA
Description: (§1) The enzyme assays were conducted by MSD Pharma Services.

[3] = biological target: T2, Protein Tyrosine Kinase, SYK (Homo sapiens, UniProt P43405); test: Protein Tyrosine Kinase SYK enzyme assay (MDS Pharma Service No. 155761); type: biochemical
T2 construct: purchased MDS Pharma Services (contract assay) 155761
Description: as §1

Phosphodiesterase PDE IV = Phosphodiesterase PDE IV enzyme assay (MDS Pharma Service No. 154000); type: biochemical
Description: as §1

[4] = test system: inflammation following treatment with cryotherapy; conditions: topical; moderate to severe inflammation following cryotherapy; cited from earlier work
undamaged skin area = test: Acute dermal irritation; type: in vivo; conditions: for cutaneous reactions (erythema and oedema): 0.5 mL patch
Description: The sample was applied at a dose of 0.5 mL, on an undamaged skin area of the right flank of each animal. The patch was secured in position with a strip of surgical adhesive tape.
On the left flank an untreated area served as the control.
The skin reactions were evaluated after 1 hour and then after 24, 48 and 72 hours following removal of the patch according to the following grading scale:
Erythema (0: No erythema, 1: Slight (barely perceptible) erythema, 2: Definite erythema, 3: Moderate to severe erythema, 4: Severe erythema (purple) with formation of eschars (deep lesions) preventing erythema from being grading).
Oedema (0: No oedema, 1: Very slight (barely perceptible) oedema, 2: Slight oedema (contour clearly defined), 3: Moderate oedema (thickness), 4: Severe oedema (thickness greater than 1 mm, surface larger than zone of application)

guinea pig skin [5] = conditions: in vivo
Description: Test for photo toxicity is carried out to evaluate the risk of cutaneous reactions on the guinea pig following exposure to ultraviolet radiation.
Thirty minutes after the treatment, the animals were subjected to ultraviolet radiations (UV-B first and then UV-A).
The animals were irradiated with the irradiation source VLX 3W (Biotronic, Vilbert Lourmat) at the Maximal Non Erythemateous Dose (M.N.E.D) 7000 J/cm2 for UV-A and 150 mJ/cm2 for the UV-B.
A macroscopic evaluation of the cutaneous reactions (erythema and oedema) was conducted 24 and 48 hours after irradiation.

[6] = biological target: T3, anandamide hydrolase (a fatty acid amide hydrolase) (Homo sapiens, UniProt O00519); conditions: in neurons; cited from earlier work
T3 construct: host or cells: neurons
T3 sequence (O00519 1-579): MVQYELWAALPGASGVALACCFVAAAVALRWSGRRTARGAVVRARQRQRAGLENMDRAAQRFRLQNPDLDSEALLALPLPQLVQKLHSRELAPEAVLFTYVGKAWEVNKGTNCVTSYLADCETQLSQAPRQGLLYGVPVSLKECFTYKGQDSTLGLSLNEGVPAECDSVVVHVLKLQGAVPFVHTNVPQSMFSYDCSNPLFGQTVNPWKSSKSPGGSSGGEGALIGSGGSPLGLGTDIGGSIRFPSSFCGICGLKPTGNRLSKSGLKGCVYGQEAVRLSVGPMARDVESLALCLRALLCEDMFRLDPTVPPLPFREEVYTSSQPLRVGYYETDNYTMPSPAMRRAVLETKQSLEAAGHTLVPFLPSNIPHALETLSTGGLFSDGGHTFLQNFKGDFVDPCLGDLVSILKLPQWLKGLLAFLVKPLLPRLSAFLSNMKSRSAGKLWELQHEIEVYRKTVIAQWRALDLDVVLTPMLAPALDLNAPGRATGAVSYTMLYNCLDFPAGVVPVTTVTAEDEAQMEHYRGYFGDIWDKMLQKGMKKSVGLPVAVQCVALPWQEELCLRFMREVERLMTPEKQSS

[7] = 25° C.; cited from earlier work
activated monocytes = conditions: cited from earlier work
NF-kappaB activation = conditions: in inflammatory cells; cited from earlier work
guinea pig skin [8] = conditions: in vivo; remark: listed apart in the source
Description: Test for skin sensitization is carried out according to the Magnusson and Kligman method (J. Invest. Dermatol. 1969. 52, 268-276) and in accordance with O.E.C.D. Guideline No. 406 of Jul. 17th, 1992, and the test method B.6 of the 96/54 E.E.C Directive.
Albino guinea pigs of Dunkin-Hartley strain were exposed to the test item after an acclimatisation period of at least five days.
The Maximum Non Necrotizing Concentration (M.N.N.C.) was determined by injecting by intradermal route the following concentrations: 2.5%, 1.25%, 0.625%, 0.3125%, 0.1562% and 0.078% diluted in physiological saline solution.
Pre-Maximum Non Irritant Concentration (pre-M.N.I.C.) was determined by application of the test item under an occlusive dressing during 24 hours, at the following concentrations: 2.5%, 1.25%, 0.625%, 0.3125% diluted in physiological saline solution.
Maximum Non Irritant Concentration (M.N.I.C.) was determined by initially establishing an induction phase by intradermal injection with a physiological saline solution and by topical application of distilled water followed by a 18-day rest phase. In the challenge phase where the test item is under occlusive dressing for 24 hours, the test item was applied to the skin of the Albino guinea pigs at the following concentrations: 2.5%, 1.25%, 0.625%, 0.3125% diluted in physiological saline solution.

human skin inflammation = conditions: topical treatment; cited from earlier work
contact dermatitis = conditions: topically applied; cited from earlier work
[9] = test system: chronic stable plaque psoriasis; conditions: topical 1%; cited from earlier work
[10] = monoethanolamine salt 5% by weight in water
[11] = Oxaprozin as the monoethanolamine salt

O=C(O)Cc1ccccc1Nc1c(Cl)cccc1Cl [Diclofenac]
cutaneous side effects (skin): irritant-type contact dermatitis may develop

CC(=O)Oc1ccccc1C(=O)O [aspirin]
cutaneous side effects (skin): may induce urticarial reactions

CCCCC(=O)O[C@]1(C(=O)CO)[C@@H](C)C[C@H]2[C@@H]3CCC4=CC(=O)C=C[C@]4(C)[C@@]3(F)[C@@H](O)C[C@@]21C [Betamethasone 17-valerate]
% inhibition of ear swelling ([1]; 20 μg/ear topical (Celeston valerate 0.1%)): 66%

CC(C(=O)O)c1cccc(C(=O)c2ccccc2)c1 (stereo not shown) [Ketoprofen]
cutaneous side effects (skin): major contact allergens

CN1C(C(=O)Nc2ccccn2)=C(O)c2ccccc2S1(=O)=O [piroxicam]
cutaneous side effects (skin): can lead to phototoxic or photo allergic dermatitis

CCCCOc1ccc(CC(=O)NO)cc1 [Bufexamac]
inhibitory effect on Protein Tyrosine Kinase ZAP-70 [2]: only exhibits inhibitory effect on the PDE-IV enzyme
inhibition of the formation of ear oedema [1]: did not inhibit the formation of ear oedema at all
cutaneous side effects (skin): reported to cause contact allergy; also recorded: major contact allergens
inhibitory effect on Protein Tyrosine Kinase SYK [3]: only exhibits inhibitory effect on the PDE-IV enzyme
inhibitory effect on the PDE-IV enzyme (Phosphodiesterase PDE IV): exhibits inhibitory effect

CCC(=O)O[C@]1(C(=O)CCl)[C@@H](C)C[C@H]2[C@@H]3CCC4=CC(=O)C=C[C@]4(C)[C@@]3(F)[C@@H](O)C[C@@]21C [clobetasol propionate]
relief of erythema and oedema [4]: proved to have effect

O=C(O)CCc1nc(-c2ccccc2)c(-c2ccccc2)o1 [Oxaprozin, 4,5-diphenyl-2-oxazole-propionic acid]
cutaneous reactions (erythema and oedema) (undamaged skin area; monoethanolamine salt 2.5% by weight in water, 1, 24, 48, 72 hours): no cutaneous reactions (erythema and oedema) were observed
reversibility of erythema (undamaged skin area; [10]): totally reversible between the 2nd and the 3rd day of the test
cutaneous reactions (erythema and oedema) (undamaged skin area; [10]): only a slight erythema on the treated area at the reading time 1 hour
inhibition of the formation of ear oedema [1]: statistically significant inhibition of the formation of ear oedema
photo toxicity (guinea pig skin [5]): not phototoxic
inhibition of anandamide hydrolase [6]: inhibits
solubility in water [7]: about 1.7 mg/ml
apoptosis of activated monocytes (activated monocytes): induces apoptosis of activated monocytes in a dose-dependent manner
inhibition of NF-kappaB activation (NF-kappaB activation): inhibits

O=C(O)CCc1nc(-c2ccccc2)c(-c2ccccc2)o1 [Monoethanolamine Oxaprozin]
IC50 [2, 11]: 38 µM
skin sensitization (guinea pig skin [8]): not causing sensitization reactions
% inhibition of ear swelling ([1]; 250 μg/ear topical in acetone, 20 min before and after challenge): 53%
% inhibition of ear swelling ([1]; 500 μg/ear topical in acetone, 20 min before and after challenge): 77%
% inhibition of ear swelling ([1]; 1000 μg/ear topical in acetone, 20 min before and after challenge): 95%
inhibition of ear swelling (in words) ([1]; 250-1000 μg/ear): dose dependent and highly significant inhibition of ear swelling
inhibition of ear swelling compared with positive control ([1]; highest dose (1000 μg/ear) vs Betamethasone 17-valerate 20 μg/ear): significantly stronger than the inhibition obtained with Betamethasone 17-valerate
IC50 [3, 11]: 28 µM
IC50 (Phosphodiesterase PDE IV; [11]): 22 µM

CC(C(=O)O)c1ccc(-c2ccccc2)c(F)c1 (stereo not shown) [flubiprofen]
effect on human skin inflammation (human skin inflammation): reduces human skin inflammation

COc1ccc2c(c1)c(CC(=O)O)c(C)n2C(=O)c1ccc(Cl)cc1 [indomethacin]
response in animal model of contact dermatitis (contact dermatitis): shown to respond
relief of erythema and oedema [4]: poor effect in relieving the erythema and oedema
cutaneous side effects (skin): may induce urticarial reactions
effect on chronic stable plaque psoriasis [9]: no effect
